Here are results for nine compounds from patent US10519114B2, “Peptidomimetics and methods of using the same” (The Regents of the University of Michigan, priority 2016, dated 2019).

One may read the Ki as the equilibrium dissociation constant of an inhibitor or competing ligand from its target. Higher therefore signals weaker binding. What is called EC50 is the concentration giving half of the maximal effect. Read a low EC50 as greater potency. In general, Emax refers to the size of the effect at its maximum, as opposed to the concentration needed.

For experiment [1], the target named is T1, rat μ (C6-MOR) opioid receptor (Rattus norvegicus, UniProt P33535).
T1 construct: expressed in transfected cells
T1 sequence (P33535 whole entry): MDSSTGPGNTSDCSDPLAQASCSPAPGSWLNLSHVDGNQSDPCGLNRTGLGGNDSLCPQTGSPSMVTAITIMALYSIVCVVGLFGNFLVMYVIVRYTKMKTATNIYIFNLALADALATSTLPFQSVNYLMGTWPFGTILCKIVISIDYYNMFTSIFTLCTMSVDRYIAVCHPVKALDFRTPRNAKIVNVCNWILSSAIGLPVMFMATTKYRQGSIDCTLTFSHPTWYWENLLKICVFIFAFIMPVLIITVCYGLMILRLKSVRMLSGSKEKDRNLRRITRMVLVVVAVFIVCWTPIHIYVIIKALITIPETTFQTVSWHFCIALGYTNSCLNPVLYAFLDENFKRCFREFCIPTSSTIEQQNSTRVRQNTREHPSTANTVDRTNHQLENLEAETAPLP
Briefly: Radioligand binding assay, [3H]diprenorphine displacement, MOR. The following applies: displacement of 0.2 nM [3H]diprenorphine, C6-MOR membranes; mean ± standard error. The procedure:
(§1) In Vitro Pharmacology-Cell Lines and Membrane Preparations. All tissue culture reagents were purchased from Gibco Life Sciences (Grand Island, N.Y., U.S.). C6-rat glioma cells stably transfected with a rat μ (C6-MOR) or rat δ (C6-DOR) opioid receptor20 and Chinese hamster ovary (CHO) cells stably expressing a human K (CHO-KOR) opioid receptor21 were used for all in vitro assays. Cells were grown to confluence at 37° C. in 5% CO2 in Dulbecco's modified Eagle medium containing 10% fetal bovine serum and 5% penicillin/streptomycin. Membranes were prepared by washing confluent cells three times with ice cold phosphate buffered saline (0.9% NaCl, 0.61 mM Na2HPO4, 0.38 mM KH2PO4, pH 7.4). Cells were detached from the plates by incubation in warm harvesting buffer (20 mM HEPES, 150 mM NaCl, 0.68 mM EDTA, pH 7.4) and pelleted by centrifugation at 200 g for 3 min. The cell pellet was suspended in ice-cold 50 mM Tris-HCl buffer, pH 7.4, and homogenized with a Tissue Tearor (Biospec Products, Inc., Bartlesville, Okla., U.S.) for 20 s at setting 4. The homogenate was centrifuged at 20 000 g for 20 min at 4° C., and the pellet was rehomogenized in 50 mM Tris-HCl with a Tissue Tearor for 10 s at setting 2, followed by recentrifugation. The final pellet was resuspended in 50 mM Tris-HCl and frozen in aliquots at […]. Protein concentration was determined via Bradford assay using bovine serum albumin as the standard.
(§2) Radioligand Binding Assays. Radioactive compounds were purchased from Perkin-Elmer (Waltham, Mass., U.S.). Opioid ligand binding assays were performed using competitive displacement of 0.2 nM [3H]diprenorphine (250 μCi, 1.85 TBq/mmol) by the test compound from membrane preparations containing opioid receptors. The assay mixture, containing membrane suspension (20 μg protein/tube) in 50 mM Tris-HCl buffer (pH 7.4), [3H]diprenorphine, and various concentrations of test peptide, was incubated at room temperature for 1 h to allow binding to reach equilibrium. The samples were rapidly filtered through Whatman GF/C filters using a Brandel harvester (Brandel, Gaithersburg, Md., U.S.) and washed three times with 50 mM Tris-HCl buffer. The radioactivity retained on dried filters was determined by liquid scintillation counting after saturation with EcoLume liquid scintillation cocktail in a Wallac 1450 MicroBeta (Perkin-Elmer, Waltham, Mass., U.S.). Nonspecific binding was determined using 10 μM naloxone. Inhibitory constant (Ki) values were calculated using nonlinear regression analysis to fit a logistic equation to the competition data using GraphPad Prism, version 5.01, for Windows (GraphPad Software Inc., La Jolla, Calif.). The results presented are the mean±standard error from at least three separate assays performed in duplicate.

The target of experiment [2] is T2, rat δ (C6-DOR) opioid receptor (Rattus norvegicus, UniProt P33533).
T2 construct: expressed in transfected cells
T2 sequence (P33533 whole entry): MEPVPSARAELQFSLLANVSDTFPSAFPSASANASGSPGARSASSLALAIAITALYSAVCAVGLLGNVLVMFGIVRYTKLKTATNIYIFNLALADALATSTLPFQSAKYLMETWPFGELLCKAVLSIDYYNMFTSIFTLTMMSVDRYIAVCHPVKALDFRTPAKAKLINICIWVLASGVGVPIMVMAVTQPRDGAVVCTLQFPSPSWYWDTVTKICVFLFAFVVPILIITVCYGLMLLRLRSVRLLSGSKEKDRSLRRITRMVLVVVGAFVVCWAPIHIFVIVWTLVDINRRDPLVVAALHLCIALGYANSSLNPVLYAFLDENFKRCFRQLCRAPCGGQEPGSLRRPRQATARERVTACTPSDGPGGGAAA
Briefly: Radioligand binding assay, [3H]diprenorphine displacement, DOR. The following applies: displacement of 0.2 nM [3H]diprenorphine, C6-DOR membranes; mean ± standard error. The method, then: as §1, §2

Experiment [3] has as its target T3, human κ (CHO-KOR) opioid receptor (Homo sapiens, UniProt P41145).
T3 construct: expressed in transfected cells
In words: Radioligand binding assay, [3H]diprenorphine displacement, KOR. The following applies: displacement of 0.2 nM [3H]diprenorphine, CHO-KOR membranes; mean ± standard error. The procedure:
as §1, §2

The target of experiment [4] is T1, rat μ (C6-MOR) opioid receptor. In words: Stimulation of [35S]GTPγS binding, MOR. It is filed as biochemical. The procedure:
as §1
(§3) Stimulation of [^35S]GTPyS Binding. Agonist stimulation of [35S]guanosine 5′-O-[γ-thio]triphosphate ([^35S]GTPγS, 1250 Ci, 46.2 TBq/mmol) binding was measured as described previously Briefly, membranes (10-20 μg of protein/tube) were incubated 1 h at room temperature in GTPyS buffer (50 mM Tris-HCl, 100 mM NaCl, 5 mM MgCl2, pH 7.4) containing 0.1 nM [^35S]GTPγS, 30 μM guanosine diphosphate (GDP), and varying concentrations of test peptides. Peptide stimulation of [^35S]GTPyS was compared with 10 μM standard compounds [D-Ala^2,N-MePhe^4,Gly-ol]encephalin (DAMGO) at MOR, D-Pen^2,5-enkephalin (DPDPE) at DOR, or […] at KOR. The reaction was terminated by rapidly filtering through GF/C filters and washing 10 times with GTPyS buffer, and retained radioactivity was measured as described above. The results presented are the mean±standard error from at least three separate assays performed in duplicate; maximal stimulation was determined using nonlinear regression analysis with GraphPad Prism (GraphPad Software Inc., La Jolla, Calif.).
Background: GTPγS is a poorly hydrolysed GTP analogue; its binding reports G protein activation.

The target in experiment [5] is T2, rat δ (C6-DOR) opioid receptor. In words: Stimulation of [35S]GTPγS binding, DOR. Type of experiment: biochemical. The following applies: for Emax / % stimulation DOR: [35S]GTPγS maximal stimulation compared with 10 μM standard DPDPE; for EC50 (nm) DOR / EC50: [35S]GTPγS binding, C6-DOR membranes, mean ± standard error. The procedure:
as §1, §3

Setting [6] is: [35S]GTPγS binding, C6-MOR membranes, mean ± standard error.
Setting [7] is: [35S]GTPγS maximal stimulation compared with 10 μM standard DAMGO.

T3 sequence (P41145 whole entry): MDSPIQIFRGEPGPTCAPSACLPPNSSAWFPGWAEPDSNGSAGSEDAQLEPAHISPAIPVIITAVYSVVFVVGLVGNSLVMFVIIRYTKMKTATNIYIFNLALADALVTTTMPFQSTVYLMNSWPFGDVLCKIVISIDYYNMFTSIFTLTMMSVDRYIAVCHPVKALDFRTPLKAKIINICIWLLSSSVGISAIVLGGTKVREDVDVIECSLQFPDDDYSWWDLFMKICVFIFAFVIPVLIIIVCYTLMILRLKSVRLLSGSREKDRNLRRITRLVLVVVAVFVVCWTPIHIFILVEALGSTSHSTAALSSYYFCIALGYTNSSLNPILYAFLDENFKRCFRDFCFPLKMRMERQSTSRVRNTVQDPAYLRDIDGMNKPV

For `Cc1cc(O)cc(C)c1C[C@H](N)C(=O)N[C@@H]1CCNc2ccc(C(c3ccccc3)c3ccccc3)cc21` [Compound 1022], the Ki in experiment [1] was 0.2 ± 0.02 nM; in experiment [2] it was 2.29 ± 0.36 nM; in experiment [3], 6.91 ± 0.21 nM. In experiment [4] (setting [6]), a half-maximal response (EC50) required 12.5 ± 8.76 nM. Moreover, the Emax came to 24.5 ± 0.29% in experiment [4] (setting [7]) and 0% in experiment [5].

For the compound `Cc1cc(O)cc(C)c1C[C@H](N)C(=O)N[C@@H]1CCNc2cc(Cc3ccccc3)ccc21` [Compound 1023], the Ki in experiment [1] came out at 0.78 ± 0.27 nM; in experiment [2], 25.8 ± 1.61 nM; in experiment [3], 91.6 nM. The compound further displayed an EC50 in experiment [4] (setting [6]) of 25.4 ± 22.2 nM. This compound also showed an Emax in experiment [4] (setting [7]) of 18.1 ± 4.92%. Further, the “EC50 (nm) DOR” value in experiment [5] is reported as “dns”. The “% stimulation DOR” value in experiment [5] is “dns”.

With `Cc1cc(O)cc(C)c1C[C@H](N)C(=O)N[C@H]1CCNc2cc(Cc3ccccc3)ccc21` [Compound 1024], the results for the Ki in experiment [1], in experiment [2] and in experiment [3] were 21.1 ± 11.9 nM, 295 ± 108 nM and 1030 nM, respectively. Moreover, the “EC50 (nm) MOR” value in experiment [4] (setting [6]) is “dns”. Further, the “% stimulation MOR” value in experiment [4] (setting [7]) is on record as “dns”. Further, the “EC50 (nm) DOR” value in experiment [5] is listed as “dns”. Moreover, the “% stimulation DOR” value in experiment [5] is on record as “dns”.

For `Cc1cc(O)cc(C)c1C[C@H](N)C(=O)N[C@@H]1CCNc2ccc(Oc3ccc(Cl)cc3)cc21` [Compound 1025], the Ki in experiment [1] turned out to be 0.1 ± 0.03 nM; in experiment [2], 12.1 ± 3.52 nM; in experiment [3], 24.8 nM. Moreover, the figures for the EC50 in experiment [4] (setting [6]) and in experiment [5] were 9.7 ± 1.32 nM and 0.3 nM, respectively. For the same compound, the Emax in experiment [4] (setting [7]) stood at 52.9 ± 4.46%; in experiment [5] it was 1.18 ± 1.18%.

Take `CCCC(=O)N1CC[C@@H](NC(=O)[C@@H](N)Cc2c(C)cc(O)cc2C)c2cc(CC3Cc4ccccc4C3)ccc21` [Compound 1034]: the Ki in experiment [1] was found to be 0.13 ± 0.02 nM; in experiment [2], 0.38 ± 0.07 nM; in experiment [3], 25.5 ± 0.85 nM. The same compound displayed an EC50 in experiment [4] (setting [6]) of 4.08 ± 1.58 nM. The same compound gave an Emax in experiment [4] (setting [7]) of 63.2 ± 12.6%. The “EC50 (nm) DOR” value in experiment [5] was “dns”. The “% stimulation DOR” value in experiment [5] is reported as “dns”.

Take `Cc1cc(O)cc(C)c1C[C@H](N)C(=O)N[C@@H]1CCNc2ccc(CC3Cc4cccc(O)c4C3)cc21` (stereo partly drawn) [Compound 1036, (2S)-2-amino-N-((4R)-6-((4-hydroxy-2,3-dihydro-1H-inden-2-yl)methyl)-1,2,3,4-tetrahydroquinolin-4-yl)-3-(4-hydroxy-2,6-dimethylphenyl)propanamide]: the Ki in experiment [1] was 0.18 ± 0.03 nM; in experiment [2], 6.01 ± 1.31 nM; in experiment [3] it was 20.6 ± 16.3 nM. The same compound registered an EC50 in experiment [4] (setting [6]) of 4.93 ± 1.15 nM. Moreover, the Emax in experiment [4] (setting [7]) turned out to be 69.1 ± 5.74%. Moreover, the “EC50 (nm) DOR” value in experiment [5] was “dns”. The “% stimulation DOR” value in experiment [5] is recorded as “dns”.

With `Cc1cc(O)cc(C)c1C[C@H](N)C(=O)N[C@@H]1CCNc2ccc(CC3Cc4ccc(O)cc4C3)cc21` (some centres unmarked) [Compound 1038], the figures for the Ki in experiment [1], in experiment [2] and in experiment [3] were 0.73 nM, 19.9 ± 4.12 nM and 38.5 nM, respectively. In addition, the results for the EC50 in experiment [4] (setting [6]) and in experiment [5] were 11.9 ± 4.96 nM and 261 nM, respectively. For the same compound, the maximum response (Emax) came to 16.2 ± 3.43% in experiment [4] (setting [7]) and 10.5% in experiment [5].

Take `Cc1cc(O)cc(C)c1C[C@H](N)C(=O)N[C@@H]1CCNc2c(Cc3ccccc3)cccc21` [Compound 1039]: the Ki in experiment [1] was determined as 57.7 nM; in experiment [2], 246 nM; in experiment [3], 977 nM. In addition, in experiment [4] (setting [6]), the EC50 stood at 988 nM. Also, in experiment [4] (setting [7]), the Emax was determined as 17.9%. For the same compound, the “EC50 (nm) DOR” value in experiment [5] is on record as “dns”. Also, the “% stimulation DOR” value in experiment [5] was “dns”.

`CC(=O)N1CC[C@@H](NC(=O)[C@@H](N)Cc2c(C)cc(O)cc2C)c2cc(Cc3ccccc3)cc(Cc3ccccc3)c21` [Compound 1042]: the Ki is 0.35 nM in experiment [1], 0.35 nM in experiment [2] and 12.1 nM in experiment [3]. The EC50 came out at 14.7 nM in experiment [4] (setting [6]) and 14.2 nM in experiment [5]. For the same compound, the Emax in experiment [4] (setting [7]) was found to be 75.1%; in experiment [5], 30.1%.
